Experimental data: EP0002259B1, “Hydantoin derivatives and salts thereof, their synthesis and pharmaceutical formulations” (THE WELLCOME FOUNDATION LIMITED, priority 1977, dated 1979)

Key:
[1] = Solubility in volatile solvent (tablet formulation); assay type: physicochemical; conditions: methanol, ethanol
Procedure: The compound was dissolved in a volatile solvent. […] The mixture was then pressed to tablets, each 226 mg in weight.

[2] = test system: platelets in fresh human platelet rich plasma (PRP); experiment: Inhibition of platelet aggregation (ADP-stimulated, Born aggregometer), activity compared to PGE1; assay type: cell-based; conditions: 37°C for 1 minute, ADP 5 µm
Procedure: Aggregation of platelets in 1 ml of fresh human platelet rich plasma (PRP) was monitored in a Born aggregometer.
The compound to be tested was added to the PRP at the desired concentration, and the resulting mixture incubated at 37°C for 1 minute after which platelet aggregation was stimulated by the addition of adenosine diphosphate (ADP) to a concentration of 5 µm.
The antiaggregatory effect of the compound was assessed by measuring the percentage inhibition of platelet aggregation in the presence of the compound as compared with when it was absent. The percentage inhibitions at various concentrations of hydantoin and prostaglandin E, (PGE,) were established and compared to show activity compared to PGE,.

[3] = test system: Male normotensive rats Wistar (Charles River) strain; experiment: Cardiovascular effects in anaesthetised rats (hypotensive effect compared with prostacyclin); assay type: in vivo; conditions: intravenous injection in physiological saline
Procedure: Male normotensive rats Wistar (Charles River) strain, ([…]) were anesthetised (chloroform) prior to cannulation to left femoral vein and anaestesia maintained by intravenous chloralose (60 mg/kg). Pulsatile blood pressure was recorded from the left femoral artery with an electronic transducer (Bell and Howell Type 4-327 L221) and integrated heart rate was measured with a cardiotachometer triggered from the arterial pressure waves.
The test compound (less polar diastereomer of the compounds of Example 2) was administered as a solution in physiological saline by intravenous injection via the femoral cannula. The responses recorded were allowed to return to the preinjection levels between successive administrations.

## O=C(O)CCCCCCC1C(=O)NC(=S)N1CCC(O)C1CCCCC1 (single isomer, unassigned) [Example 3 less, 5-(6-carboxyhexyl)-l-(3-cyclohexyl-3-hydroxypropyl)-2-thiohydantoin]
[1]
  solubility: soluble in methanol and in ethanol

## CCCCCC(O)CCN1C(=S)NC(=O)C1CCCCCCC(=O)O (centres unmarked) [Example 1 more, 5-(6-carboxyhexyl)-1-(3-hydroxyoctyl)-2-thiohydantoin]
[2]; activity relative to PGE1
  Inhibition of Platelet Aggregation (X PGE1): <0,01 X PGE1

## CC(C)(C)CC(O)CCN1C(=S)NC(=O)C1CCCCCCC(=O)O (centres unmarked) [Example 2 less, 5-(6-carboxyhexyl)-1-(5,5-dimethyl-3-hydroxyhexyl)-2-thiohydantoin]
[2]; activity relative to PGE1, listed as 2 less
  Inhibition of Platelet Aggregation (X PGE1): 0,04 X PGE1
[3]
  hypotensive effect, per cent of the hypotensive effect of prostacyclin: less than one

## CC(C)(C)CC(O)CCN1C(=S)NC(=O)C1CCCCCCC(=O)O (centres unmarked) [Example 2 more, 5-(6-carboxyhexyl)-1-(5,5-dimethyl-3-hydroxyhexyl)-2-thiohydantoin]
[2]; activity relative to PGE1, listed as 2 more
  Inhibition of Platelet Aggregation (X PGE1): 0,01 X PGE1

## O=C(O)CCCCCCC1C(=O)NC(=S)N1CCC(O)C1CCCC1 (centres unmarked) [Example 5 less, 5-(6-carboxyhexyl)-1-(3-cyclopentyl-3-hydroxypropyl)-2-thiohydantoin]
[2]; activity relative to PGE1
  Inhibition of Platelet Aggregation (X PGE1): 0,03 X PGE1

## O=C(O)CCC/C=C\CC1C(=O)NC(=S)N1CCC(O)C1CCCCC1 (centres unmarked) [Example 6 less, 5-(6-carboxyhex-2Zenyl)-1-(3-cyclohexyl-3-hydroxypropyl)-2-thiohydantoin]
[2]; activity relative to PGE1, listed as 6 less
  Inhibition of Platelet Aggregation (X PGE1): 0,04 X PGE1

## O=C(O)CCC/C=C\CC1C(=O)NC(=S)N1CCC(O)C1CCCCC1 (centres unmarked) [Example 6 more, 5-(6-carboxyhex-2Zenyl)-1-(3-cyclohexyl-3-hydroxypropyl)-2-thiohydantoin]
[2]; activity relative to PGE1, listed as 6 more
  Inhibition of Platelet Aggregation (X PGE1): 0,02 X PGE1
